The results in this text go back to ChEMBL document CHEMBL5032530, “Discovery of Benzocyclic Sulfone Derivatives as Potent CXCR2 Antagonists for Cancer Immunotherapy” (J Med Chem, 2021).

Data set [1] concerns the target T1, C-X-C chemokine receptor type 2 (Homo sapiens, UniProt P25025).
T1 sequence (P25025 whole entry): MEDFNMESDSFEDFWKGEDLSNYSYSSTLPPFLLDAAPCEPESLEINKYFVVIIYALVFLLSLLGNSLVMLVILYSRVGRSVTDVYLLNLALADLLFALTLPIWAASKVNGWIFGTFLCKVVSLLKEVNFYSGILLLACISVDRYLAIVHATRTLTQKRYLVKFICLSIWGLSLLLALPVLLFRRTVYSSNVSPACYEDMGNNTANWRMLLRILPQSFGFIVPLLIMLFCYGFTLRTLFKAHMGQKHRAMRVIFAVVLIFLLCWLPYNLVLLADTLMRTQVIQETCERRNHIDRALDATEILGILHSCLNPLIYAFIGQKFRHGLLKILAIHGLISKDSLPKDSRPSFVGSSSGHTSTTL
As to the kind of experiment: Antagonist activity at human CXCR2 expressed in HEK293 cells assessed as inhibition of CXCL8-induced beta-arrestin recruitment preincubated for 30 mins followed by addition of agonist incubated for 90 mins by beta arrestin assay. The data set is classed as functional, cell-based. (In general: Arrestin recruitment assays detect the binding of arrestin to an activated receptor.)

Data set [2] is described as follows: Tmax in ICR mouse at 3 mg/kg, iv measured upto 48 hrs. The data set is classed as ADME, organism-based. The note with it: in vivo.
A short description of data set [3]: Tmax in ICR mouse at 30 mg/kg, po measured upto 48 hrs. The note with it: in vivo. The data set is classed as ADME, organism-based.
Data set [4] in a line: Cmax in ICR mouse at 3 mg/kg, iv measured upto 48 hrs. The data set is classed as ADME, organism-based. Set-up: route intravenous, dose 3 mg/kg, time <=48. The following applies: in vivo.
The nature of data set [5]: Cmax in ICR mouse at 30 mg/kg, po measured upto 48 hrs. The data set is classed as ADME, organism-based. Set-up: route oral, dose 30 mg/kg, time <=48. The note with it: in vivo.
Data set [6] in a line: AUC (0 to t) in ICR mouse at 3 mg/kg, iv measured upto 48 hrs. The data set is classed as ADME, organism-based. On the set-up: route intravenous, dose 3 mg/kg, time <=48. The following applies: in vivo.
The nature of data set [7]: AUC (0 to t) in ICR mouse at 30 mg/kg, po measured upto 48 hrs. Format: ADME, organism-based. On the set-up: route oral, dose 30 mg/kg, time <=48. The note with it: in vivo.
The nature of data set [8]: AUC (0 to infinity) in ICR mouse at 3 mg/kg, iv measured upto 48 hrs. The note with it: in vivo. Set-up: route intravenous, dose 3 mg/kg, time <=48. Format: ADME, organism-based.
Data set [9] can be described thus: AUC (0 to infinity) in ICR mouse at 30 mg/kg, po measured upto 48 hrs. The data set is classed as ADME, organism-based. On the set-up: route oral, dose 30 mg/kg, time <=48. The note with it: in vivo, 48 h.
Data set [10] is described as follows: Half life in ICR mouse at 3 mg/kg, iv measured upto 48 hrs. The data set is classed as ADME, organism-based. The note with it: in vivo.
A short description of data set [11]: Half life in ICR mouse at 30 mg/kg, po measured upto 48 hrs. Format: ADME, organism-based. The note with it: in vivo, 30 mg/kg, 48 h.
Data set [12] can be described thus: Apparent volume of distribution in ICR mouse at 3 mg/kg, iv measured upto 48 hrs. The data set is classed as ADME, organism-based. The note with it: in vivo, read-out: Vz.
Data set [13] in a line: Apparent volume of distribution in ICR mouse at 30 mg/kg, po measured upto 48 hrs. Format: ADME, organism-based. The following applies: in vivo.
Data set [14] is described as follows: Clearance in ICR mouse at 3 mg/kg, iv measured upto 48 hrs. Format: ADME, organism-based. The following applies: in vivo.
The nature of data set [15]: Clearance in ICR mouse at 30 mg/kg, po measured upto 48 hrs. Format: ADME, organism-based. The note with it: in vivo, 30 mg/kg, 48 h.
A short description of data set [16]: Oral bioavailability in ICR mouse at 30 mg/kg measured upto 48 hrs. Format: ADME, organism-based. The note with it: in vivo.
The next data set has as its system Neutrophil. As to the kind of experiment: In vivo antagonist activity at CXCR2 in carrageenan-induced C57BL/6 mouse air pouch inflammation model assessed as reduction in neutrophil infiltration into air pouch at 10 mg/kg, po bid administered after 3 days of carrageenan treatment for 3 days. Format: functional, organism-based. The note with it: time 3.0 day.

Activity calls are given as the source filed them. The calls are words filed in the database; no cut-off is given here.

In general, IC50 refers to the midpoint of a concentration-inhibition curve. For orientation: Tmax means the time from dosing to the highest level. As usually defined, the Cmax is the peak of the concentration-time curve. Usually AUC(0-t) stands for exposure summed from dosing to a finite time, without extrapolation to infinity. As a reminder, the AUC(0-inf) is total exposure, with the tail of the curve extrapolated. By AUC is commonly meant the area under the concentration-time curve, a measure of exposure. A low value points to less exposure. The term half-life denotes the time in which the quantity being followed falls by half. Higher therefore signals slow decline. A word on the clearance: it is the rate of elimination divided by the concentration. Read a high clearance as efficient removal. What is called bioavailability is dose-corrected exposure relative to a reference, in per cent. A high value points to good availability.

For `Cc1c(F)cccc1NC(=O)Nc1ccc2c(c1O)S(=O)(=O)CCC2=O`, the IC50 in data set [1] was 420 nM. On the same count and under the same terms, the value for `O=c1c(Nc2ccc3c(c2O)S(=O)(=O)CCC3)c(Nc2cccc(F)c2Cl)c1=O` was 3450 nM.

Regarding `O=c1c(Nc2ccccc2Cl)c(Nc2ccc3c(c2O)S(=O)(=O)CC=C3)c1=O`, the IC50 in data set [1] was 200 nM. Same read-out and setting: as for `O=c1c(Nc2ccccc2Cl)c(Nc2ccc3c(c2O)S(=O)(=O)CCC3)c1=O`, the figure is 1050 nM; as for `O=C(Nc1ccccc1Cl)Nc1ccc2c(c1O)S(=O)(=O)CCC2`, 210 nM. Regarding `O=C(Nc1ccccc1F)Nc1ccc2c(c1O)S(=O)(=O)CC=C2`, in data set [1], the IC50 turned out to be 320 nM. The same measure, in the same setting: as for `O=C(Nc1ccccc1Br)Nc1ccc2c(c1O)S(=O)(=O)CC=C2`, the figure is 49 nM; as for `Cc1c(F)cccc1Nc1c(Nc2ccc3c(c2O)S(=O)(=O)CCC3)c(=O)c1=O`, 1360 nM. Same read-out and setting: as for `Cc1c(F)cccc1Nc1c(Nc2ccc3c(c2O)S(=O)(=O)CC=C3)c(=O)c1=O`, the figure is 370 nM; as for `O=C(Nc1ccc2c(c1O)S(=O)(=O)CC=C2)Nc1cccc(Cl)c1Cl`, 130 nM. Consider `O=C(Nc1ccc(Br)cc1)Nc1ccc2c(c1O)S(=O)(=O)CC=C2`, for which the IC50 in data set [1] was 1480 nM. Still for that read-out and setting: as for `O=C(Nc1ccccc1Br)Nc1ccc2c(c1O)S(=O)(=O)CCC2`, the figure is 140 nM; as for `O=c1c(Nc2ccc3c(c2O)S(=O)(=O)CC=C3)c(Nc2cccc(Cl)c2Cl)c1=O`, 2500 nM; as for `O=c1c(Nc2ccccc2Br)c(Nc2ccc3c(c2O)S(=O)(=O)CC=C3)c1=O`, 78 nM. On the same count and under the same terms, the value for `O=C(Nc1ccc(Cl)cc1Cl)Nc1ccc2c(c1O)S(=O)(=O)CCC2` was more than 10000 nM.

On to `O=c1c(Nc2ccccc2Br)c(Nc2ccc3c(c2O)S(=O)(=O)CCC3)c1=O`, for which, in [1], the IC50 worked out at 150 nM. Consider `O=C(Nc1ccc2c(c1O)S(=O)(=O)CCC2)Nc1cccc(F)c1Cl`, for which the half-inhibitory concentration (IC50) in [1] was 43 nM.

Turning to `Cc1ccc(NC(=O)Nc2ccc3c(c2O)S(=O)(=O)CC=C3)cc1`, the IC50 in data set [1] was 190 nM.

With `NS(=O)(=O)c1c(Cl)ccc(NC(=O)Nc2cccc(Cl)c2Cl)c1O`, the IC50 in data set [1] amounted to 13 nM. The Tmax was 3.6 min in [2] and 18 min in data set [3]. Also, the Cmax in [4] stood at 8350 ng/mL; in data set [5], 3810 ng/mL. Besides, the AUC(0-t) at 48 h was determined as 3160 ng·h/mL in data set [6] and 11100 ng·h/mL in data set [7]. Further, the AUC(0-inf) in data set [8] turned out to be 3160 ng·h/mL. The molecule also gave an area under the curve (AUC) in data set [9] of 11072.08 ng·h/mL. This molecule gave a half-life in data set [10] of 216 min. The t1/2 in [11] is 215 min. The Vd in [12] was determined as 5.07 L/kg. Moreover, in data set [13], the Vz was determined as 14.09 L/kg. For the same molecule, the clearance in data set [14] was 16.3 mL/min/kg. The same molecule gave a CL in data set [15] of 453.5 mL/min/kg. This molecule had a bioavailability in [16] of 35%. Further, the outcome with Neutrophil was Active. Take `O=C(Nc1ccccc1C(F)(F)F)Nc1ccc2c(c1O)S(=O)(=O)CCC2`: the IC50 in data set [1] amounted to 4510 nM. Same read-out and setting: the value for `O=C(Nc1ccc(Cl)cc1Cl)Nc1ccc2c(c1O)S(=O)(=O)CC=C2` was 5920 nM; that for `O=C(Nc1ccc(Br)cc1)Nc1ccc2c(c1O)S(=O)(=O)CCC2` was more than 10000 nM; that for `O=C(Nc1ccccc1C(F)(F)F)Nc1ccc2c(c1O)S(=O)(=O)CC=C2` was 1600 nM.

As to `Cc1c(Cl)cccc1NC(=O)Nc1ccc2c(c1O)S(=O)(=O)CC=C2`, the IC50 in [1] was determined as 1640 nM. The same measure, in the same setting: the value for `Cc1c(Cl)cccc1NC(=O)Nc1ccc2c(c1O)S(=O)(=O)CCC2` was 2430 nM; that for `O=C(Nc1ccccc1Cl)Nc1ccc2c(c1O)S(=O)(=O)CC=C2` was 66 nM; that for `O=c1c(Nc2ccc3c(c2O)S(=O)(=O)CCC3)c(Nc2cccc(Cl)c2Cl)c1=O` was 9990 nM. `O=C(Nc1ccc2c(c1O)S(=O)(=O)CCC2=O)Nc1cccc(Cl)c1Cl`: the IC50 in data set [1] turned out to be 400 nM. The same measure, in the same setting: the value for `Cc1ccc(NC(=O)Nc2ccc3c(c2O)S(=O)(=O)CCC3)cc1` was 1320 nM; that for `O=C(Nc1ccccc1F)Nc1ccc2c(c1O)S(=O)(=O)CCC2` was 1020 nM; that for `O=c1c(Nc2ccc3c(c2O)S(=O)(=O)CC=C3)c(Nc2cccc(F)c2Cl)c1=O` was 700 nM.

As to `O=C(Nc1ccc2c(c1O)S(=O)(=O)CC=C2)Nc1cccc(F)c1Cl`, the IC50 in data set [1] turned out to be 19000 nM.

For `O=C(Nc1ccc2c(c1O)S(=O)(=O)CCC2)Nc1cccc(Cl)c1Cl`, the IC50 in [1] came out at 210 nM.
